The source of these data is publication PMC7766656, “Evaluation of the In Vitro Cytotoxic Activity of Caffeic Acid Derivatives and Liposomal Formulation against Pancreatic Cancer Cell Lines” (Materials, 2020).

Molecules are shown by their SMILES.

Data set [1] concerns AsPC1 pancreatic cancer cells. Kind of data set: MTT cytotoxicity assay, AsPC1 cells, 72 h. It counts as cell-based, human. The note with it: for IC50: Homo sapiens, ASPC1, free compound in DMSO, MTT, 72 h; for AsPC1 SI: selectivity index = IC50 of NHDF/IC50 of AsPC1, free compound. Here is the method: (§1) In vitro cell culture procedures were performed under aseptic conditions and cultures were maintained in an Innova CO-180 incubator (New Brunswick Scientific, Edison, NJ, USA). Pancreatic cancer cells, namely, BxPC-3 (primary pancreatic tumor) and AsPC-1 (from ascites of a patient with pancreatic cancer) cells, were cultured in RPMI-1640 medium supplemented with 10% heat inactivated fetal bovine serum (FBS), GlutaMAX™ and antibiotic-antimycotic. NHDF cells were cultured in alpha-MEM medium supplemented with 10% heat-inactivated FBS, GlutaMAX™ and antibiotic-antimycotic. Culture was carried out at 37 °C in a humidified atmosphere containing 5% CO2.
(§2) The effect of CA and its derivatives on cell viability was determined using a quantitative colorimetric MTT assay adapted from Mosmann. Cells were seeded in 96-well plates (5 × 10^3/well), in appropriate complete cell culture medium, for 24 h. The cells were treated with caffeic acid derivatives (in the range of 18.75–150 μM), DMSO (an equivalent volume of DMSO was used as a negative control, maximal concentration was 0.4% v/v) or liposomal formulations for 72 h. The medium containing tested chemicals was removed and MTT solution (working solution: stock 0.5 mg/mL was 10 times diluted in medium) was added to the wells, and the plates were incubated for a further 3 h. Subsequently, the MTT solution was replaced with DMSO (50 μL/well) to dissolve the purple formazan crystals. Absorbance was measured at 560 nm with a reference wavelength of 670 nm on an Asys UVM 340 Microplate Reader (Cambridge, UK). Results were expressed as the percentage of surviving cells, with respect to the control (the untreated cells) calculated as: Cell Viability (%) = (AT/AC) × 100(2) where: • AT = Absorbance of the treatment well (treated cells); • AC = Absorbance of the control well (not treated cells).
(§3) IC50 values were calculated using GraphPad Prism for Windows (GraphPad Software, La Jolla, CA, USA). The degree of selectivity of the CA derivatives against pancreatic cancer cells was expressed by the selectivity index (SI) where: SI = IC50 normal cells/IC50 cancer cells(3)
(§4) The purpose of this study was to obtain a preliminary insight into the anticancer activity of a series of caffeic acid derivatives. In order to determine the in vitro cytotoxicity of the resynthesized compounds, the activity of CA and twelve derivatives (Table 1), were screened against two human PC cell lines, BxPC3 and AsPC1, derived from primary and metastatic tumors, respectively. Since we were also interested in evaluating the degree of selectivity of the synthetized derivatives, we decided to use normal human dermal fibroblasts as control, healthy, cells. This made it possible to determine the specificity of the tested substances, in terms of their selectivity index towards pancreatic cancer cells. The cytotoxicity of the examined compounds was estimated using the classic MTT assay, which is based on the detection of the activity of oxidoreductive enzymes (mainly mitochondrial succinate dehydrogenase), which are present only in living, metabolically active cells. During the experiments, cells were incubated for 72 h in the presence of increasing concentrations of CA and the series of CA derivatives, in the range of 18.75–150 μM. […] Untreated cells were tested as the control group.
On the technique in general: Tetrazolium dyes change colour on reduction, which living cells bring about.

In data set [2] the test system is BxPC3 pancreatic cancer cells. Nature of the data set: MTT cytotoxicity assay, BxPC3 cells, 72 h. Format: cell-based, human. To be noted: for IC50: Homo sapiens, BXPC-3, free compound in DMSO, MTT, 72 h; for BxPC3 SI: selectivity index = IC50 of NHDF/IC50 of BxPC3, free compound. The protocol:
as §1, §2, §3, §4

For data set [3], the system named is NHDF (normal human dermal fibroblasts). Nature of the data set: MTT cytotoxicity assay, NHDF control cells, 72 h. Format: cell-based. To be noted: free compound in DMSO. Here is the method:
as §1, §2, §3, §4

Data set [4] in a line: Compound encapsulation efficiency (EE) in liposomes. It counts as physicochemical. To be noted: SPC:DSPE-PEG2000 95:5 mol/mol liposomes. Here is the method: Caffeic acid derivatives encapsulated liposomes were prepared using the dry lipid film and extrusion method. A 1 mL solution of 10 mg of total lipids in chloroform (SPC:DSPE-PEG2000 95:5 mol/mol) were mixed with 1 mg of caffeic acid esters in methanol. Subsequently, solvents were removed from the samples via evaporation under a stream of nitrogen-gas to form a homogeneous lipid film on the flask wall and dried for 2 h at low pressure using a Savant Modulyo lyophilizer (Thermo Fisher Scientific, Waltham, MA, USA). Then, the lipid film was suspended by addition of 1 mL of sterile normal saline (0.9% NaCl), with mixing, until it was completely hydrated. […]
The lipid concentration was determined by the Stewart assay. The amount of (7) was determined spectrophotometrically at 290 nm and was calculated from the appropriate calibration curve according to the method described previously:EE (%) = CAf(mg/mL)/Lf(mg/mL)/CAi(mg/mL)/Li(mg/mL) × 100(1) where CAi(mg/mL)/Li(mg/mL) represents the (caffeic acid derivate)-to-lipid ratio at the point when the compound was mixed with the liposomes, and CAf(mg/mL)/Lf(mg/mL) is the final (caffeic acid derivate)-to-lipid ratio of the liposomes.

Data set [5] has as its system MIAPACa-2 pancreatic cancer cell line. Details: method as in PMID 26373299. The note with it: 25 μg/mL (87 μM), 48 h incubation; cited from earlier work.
Data set [6] concerns PANC-1 pancreatic cancer cell line. Set-up: method as in PMID 26373299. The note with it: 25 μg/mL (87 μM), 48 h incubation; cited from earlier work.
In a further data set the test system is BxPC3 cells. Set-up: method as in PMID 18824880. The note with it: 10 μg/mL (35 μM); cited from earlier work.

`CC(=O)/C=C/c1ccc(O)c(O)c1O` [(11), 4-(2’, 3’, 4’-trihydroxyphenyl)-3 (E)-buten-2-one]: in data set [1], the IC50 (as a rule, the concentration needed to halve the response being measured) was determined as 18.4 ± 0.74 µM and the “AsPC1 SI” value was found to be 3.36. Also, in data set [2], the midpoint of inhibition, the IC50, lay at 21.7 ± 1.51 µM and the “BxPC3 SI” value is 2.84. For the same molecule, the IC50 in data set [3] was 61.7 ± 10.5 µM.
Regarding `CC(=O)/C=C/c1ccccc1O` [Compound (7)], in data set [1], it took 18.7 ± 0.24 µM to reach half-maximal inhibition (IC50) and the “AsPC1 SI” value came to 3.27. Further, in data set [2], 22.4 ± 2.52 µM corresponded to half-maximal inhibition (IC50) and the “BxPC3 SI” value is 2.73. Further, the IC50 in data set [3] was 61.1 ± 1.95 µM. This molecule showed an Encapsulation efficiency in data set [4] of 93%.
As to `COC(=O)/C=C/c1ccc(O)c(O)c1O` [(5)], the half-inhibitory concentration (IC50) in data set [1] was 42.5 ± 3.57 µM; in data set [2], 46.6 ± 3.47 µM; in data set [3], 98.8 ± 9.56 µM.
Consider `COc1cc(/C=C/C(C)=O)ccc1O` [(12)], for which, in data set [1], 38 ± 6.12 µM corresponded to half-maximal inhibition (IC50) and the “AsPC1 SI” value was 1.36. Also, in data set [2], 29.9 ± 5.13 µM corresponded to half-maximal inhibition (IC50) and the “BxPC3 SI” value was found to be 1.72. Besides, the half-maximal inhibitory concentration (IC50) in data set [3] was determined as 51.5 ± 1.2 µM.
For `CC(=O)/C=C/c1ccc(O)cc1` [(9)], in that order: 25.6 ± 2.17 µM, 2.31, 28.1 ± 3.36 µM, 2.11 and 59.2 ± 11.6 µM.
On the same counts, the results for `CC(=O)/C=C/c1ccc(O)cc1O` [(10)] are 35.3 ± 1.28 µM, 1.54, 34.1 ± 1.74 µM, 1.60 and 54.6 ± 2.25 µM.
With `O=C(/C=C/c1ccc(O)c(O)c1)OCCc1ccccc1` [CAPE, caffeic acid phenethyl ester], the “Reduction of proliferation rate” value in data set [5] is 65.7%; in data set [6] it was 93.0%. Further, in the data set with BxPC3 cells, the Inhibition (usually how much of the control response was suppressed) is listed as 80.4%.
As for `CC(=O)/C=C/c1cccc(O)c1` [(8)], in data set [1], half-maximal inhibition (IC50) required 19.2 ± 0.72 µM and the “AsPC1 SI” value is reported as 4.14. In addition, in data set [2], the half-maximal inhibitory concentration (IC50) stood at 30.5 ± 4.55 µM and the “BxPC3 SI” value is 2.61. Further, the half-inhibitory concentration (IC50) in data set [3] worked out at 79.7 ± 6.3 µM.
